According to patent US20100113421A1, “NON-NUCLEOSIDE REVERSE TRANSCRIPTASE INHIBITORS” (priority 2006, published 2010):

Columns and labels:
[1] = test system: HIV strain containing the Y181C mutation; assay: Spread assay, Y181C mutant strain; type: cell-based; conditions: Human immunodeficiency virus 1; spread assay, 10% FBS, Y181C mutant strain; read-out: CIC95
Summary of the method: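 Acute HIV-1 infection of T-lymphoid cells run in the presence of 10% FBS, […]; potency expressed as CIC95.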

[2] = test system: mutant strain containing both the K103N and Y181C mutations; assay: Spread assay, mutant strain containing both K103N and Y181C; type: cell-based, HIV; conditions: Human immunodeficiency virus 1; analogous spread assay, K103N and Y181C double mutant strain; read-out: CIC95
Method: Assays for the inhibition of acute HIV-1 infection of T-lymphoid cells (alternatively referred to herein as the “spread assay”) were conducted in accordance with Vacca, J. P. et al., Proc. Natl. Acad. Sci. USA 1994, 91: 4096. The assays (using 10% FBS) tested for inhibition of wild type HIV-1 and of HIV strains containing the Y181C or K103N mutation. […] (Note that the compound of Example 6 was tested only up to a 833 nM concentration and the CIC95 value was determined to be >833 nM. The compound of Example 78 was not tested in the Y1818C assay.) The compounds of Examples 1 to 119 (including Examples 70A and 70B) had CIC95 values of less than 1000 nanomolar in the assay employing the K103N mutant strain. In an analogous assay employing a mutant strain containing both the K103N and Y181C mutations, the compounds of Examples 70A, 70B and 78-115 had CIC95 values of less than 1000 nanomolar.

SMILES: CC(C)c1c(C(=O)N(C)Cc2ccnc(N)c2F)[nH]c(C(N)=O)c1S(=O)(=O)c1ccccc1 [Example 115, N2-[(2-amino-3-fluoropyridin-4-yl)methyl]-3-isopropyl-N2-methyl-4-(phenylsulfonyl)-1H-pyrrole-2,5-dicarboxamide]
- IC95 [1]: < 8 µM
- IC95 [2]: < 1 µM
